Bridge positions count the residues as written; N and C are the ends. Square brackets hold non-standard residues; d marks the D form. Peptide text beside a SMILES is read from it. S5 = C=CCCC[C@](C)(N)C(=O)O
Key:
[1] = test system: mice with bleomycin-induced pulmonary fibrosis; assay: HE staining pathomorphology and inflammatory score of bleomycin-induced pulmonary fibrosis; format: in vivo, C57BL/6 mice; details: Table 3 groups, 2 mg/kg i.p., after 28 days, grade 0-5
Experimental: Male C57BL/6 mice were fasted overnight, then anesthetized with 45 mg/kg sodium pentobarbital by injection intraperitoneally (i.p.), and intratracheally injected with bleomycin at a dose of 3 U/kg. The specific operation steps are as follows: cut the neck skin of the mouse with as little trauma as possible, expose the trachea with the assistance of elbow ophthalmic forceps, puncture the trachea and inject about 50 μL of bleomycin into the trachea with a microsyringe, rotate the mouse quickly and stand it upright for 5 minutes in order to make bleomycin evenly enter the left and right lobe, thereby constructing an animal model. The whole operation was performed at a surgical table at about […]. Mice in the sham operation group were intratracheally injected with an equal amount of physiological saline for injection.
General tissue changes and tissue products can be visualized by HE staining method, namely Hematoxylin and Eosin staining method, which is the most commonly used staining method for morphology. Among them, hematoxylin dyeing solution is an alkaline dyeing solution, which mainly makes the chromatin in the nucleus and the ribosome in the cytoplasm purple blue; eosin is an acid dye, which mainly makes the components in the cytoplasm and extracellular matrix red. Pulmonary fibrosis models were made according to the method described in Example 2 and administered in groups according to Table 3. After 28 days, the right lower lobe of lung tissue of the experimental animals was taken, and fixed with 4% (v/v) paraformaldehyde and embedded in paraffin. Section was performed on the largest cross-section of the paraffin block in which the lung tissue embedded, and basic pathological changes was observed through HE staining. […] The administration of polypeptides S1-S11 can reduce lung inflammation caused by bleomycin, and effectively ameliorate lung injury and restore normal lung structure.
The inflammatory grading was observed according to the results of HE staining, and the criteria were as follows (grade 0-5): grade “0”: normal tissue; grade “1”: extremely small inflammatory changes; grade “2”: mild to moderate inflammatory changes without apparent destruction of lung tissue structure; grade “3”: moderate inflammatory injury (thickening of alveolar diaphragm); grade “4”: moderate to severe inflammatory injury with formation of tissue mass, or the normal structure of lung tissue was destroyed by localized pneumonia area; grade “5”: severe inflammatory injury, severe destruction of the localized lung tissue structure, resulting in closure of lumen.
Pulmonary fibrosis models were made according to the method described in Example 2 and administered in groups according to Table 9. After 28 days, the right lower lobe of lung tissue of the experimental animals was taken, and fixed by 4% (v/v) paraformaldehyde and embedded in paraffin. Section was performed on the largest cross-section of the paraffin block in which the lung tissue embedded, and basic pathological changes was observed through HE staining.

[2] = α-helix ratio of polypeptides by circular dichroism; format: physicochemical; details: PBS solution, 1 mg/mL
Experimental: The α-helix ratio of the polypeptide was measured by a circular dichromatograph (purchased from Jasco, Japan). The polypeptides MR2, S1, S2, S3, S4, S5, S6, S7, S8, S9, S10 and S11 prepared in Example 1 were dissolved in PBS solution, and the working concentration of the circular dichromatograph was adjusted to 1 mg/mL. […] Among them, the α-helix ratio refers to the percentage of the number of peptide segments of the polypeptide that maintains the alpha helix of the secondary structure in the peptide segments of the total polypeptide.

TRB3 protein = target: T1, TRB3 protein (Homo sapiens, UniProt Q96RU7); assay: Surface plasmon resonance (Biacore T200) binding of polypeptides to TRB3 protein; details: SPR, FIG. 4-1, 4-2 and Table 1
T1 construct: purchased RD
T1 sequence (Q96RU7 1-358): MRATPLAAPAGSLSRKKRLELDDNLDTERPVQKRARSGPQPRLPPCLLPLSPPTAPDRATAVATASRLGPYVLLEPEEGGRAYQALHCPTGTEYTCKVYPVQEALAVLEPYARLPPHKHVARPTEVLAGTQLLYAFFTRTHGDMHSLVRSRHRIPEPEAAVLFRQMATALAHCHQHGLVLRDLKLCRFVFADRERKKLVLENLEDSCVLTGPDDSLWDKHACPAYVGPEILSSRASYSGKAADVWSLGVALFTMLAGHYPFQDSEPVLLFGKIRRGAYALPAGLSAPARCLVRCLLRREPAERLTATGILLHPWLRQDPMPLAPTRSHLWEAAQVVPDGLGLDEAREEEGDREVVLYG
Experimental: The surface plasmon resonance experiment was carried out in a surface plasmon resonator Biacore T200, and the procedure was carried out in accordance with the instructions of the plasma resonator Biacore T200. Specific steps are as follows:
1. Purified TRB3 protein (purchased from RD) was coupled to a CMS chip (purchased from GE) by amidogen, and the unbound protein was eluted at a flow rate of 10 μL/min. The surface of the chip was equilibrated for 2 hours. Among them, the specific steps of amidogen coupling, elution and equilibration refer to the relevant instruction of GE's CMS chip.
2. 250 μL of the S1-S11 and MR2 polypeptide fragments prepared in Example 1 with different concentrations (800, 400, 200, 50, 12.5, 6.25, and 3.125 nM) were automatically injected, and the entire surface plasmon resonance experiment was carried out at 25° C. The buffer used was HBS-EP buffer [0.01 M HEPES, 0.15 M NaCl, 3 mM EDTA and 0.005% (w/w) surfactant TWEEN20]. Biacore T200's built-in analysis software was used to simulate the binding curves of different concentrations of peptides to TRB3.

Row | SMILES | Inflammatory score [1] | α-helicity (%) [2] | α-helix ratio compared with polypeptide MR2 (in words) [2] | interaction with the TRB3 protein (in words) (TRB3 protein)
1 | CSCC[C@H](NC(=O)[C@H](CC(C)C)NC(=O)[C@@H](N)Cc1c[nH]cn1)C(=O)N[C@@H](C)C(=O)N[C@@H](CS)C(=O)N[C@@H](Cc1ccccc1)C(=O)N[C@@]1(C)CCCC=CCCC[C@@](C)(C(=O)N[C@@H](CC(C)C)C(=O)N[C@@H](CCCCN)C(=O)N[C@@H](CCCCN)C(=O)N[C@@H](CCCNC(=N)N)C(=O)O)NC(=O)[C@H](CCCCN)NC(=O)[C@H](C)NC(=O)[C@H](CS)NC1=O [S7, His-Leu-Met-Ala-Cys-Phe-S5-Cys-Ala-Lys-S5-Leu-Lys-Lys-Arg] (H-HLMACF[S5]CAK[S5]LKKR-OH; staple 7-11; N-terminus and C-terminus assumed) | 2 | 51.0% | significantly higher than that of polypeptide MR2 | interacted with the TRB3 protein
2 | CSCC[C@H](NC(=O)[C@H](CC(C)C)NC(=O)[C@@H](N)Cc1c[nH]cn1)C(=O)N[C@@H](C)C(=O)N[C@@H](CS)C(=O)N[C@@H](Cc1ccccc1)C(=O)N[C@H](C(=O)N[C@@]1(C)CCCC=CCCC[C@@](C)(C(=O)N[C@@H](CCCCN)C(=O)N[C@@H](CCCCN)C(=O)N[C@@H](CCCNC(=N)N)C(=O)O)NC(=O)[C@H](CCCCN)NC(=O)[C@H](CCCCN)NC(=O)[C@H](C)NC1=O)[C@@H](C)O [S8, His-Leu-Met-Ala-Cys-Phe-Thr-S5-Ala-Lys-Lys-S5-Lys-Lys-Arg] (H-HLMACFT[S5]AKK[S5]KKR-OH; staple 8-12; N-terminus and C-terminus assumed) | 2.833 | 29.1% | significantly higher than that of polypeptide MR2 | interacted with the TRB3 protein
3 | CSCC[C@H](NC(=O)[C@H](CC(C)C)NC(=O)[C@@H](N)Cc1c[nH]cn1)C(=O)N[C@@H](C)C(=O)N[C@@H](CS)C(=O)N[C@@H](Cc1ccccc1)C(=O)N[C@H](C(=O)N[C@@H](CS)C(=O)N[C@@]1(C)CCCC=CCCC[C@@](C)(C(=O)N[C@@H](CCCCN)C(=O)N[C@@H](CCCNC(=N)N)C(=O)O)NC(=O)[C@H](CC(C)C)NC(=O)[C@H](CCCCN)NC(=O)[C@H](CCCCN)NC1=O)[C@@H](C)O [S9, His-Leu-Met-Ala-Cys-Phe-Thr-Cys-S5-Lys-Lys-Leu-S5-Lys-Arg] (H-HLMACFTC[S5]KKL[S5]KR-OH; staple 9-13; N-terminus and C-terminus assumed) | 2.167 | 44.0% | significantly higher than that of polypeptide MR2 | interacted with the TRB3 protein
4 | CSCC[C@H](NC(=O)[C@H](CC(C)C)NC(=O)[C@@H](N)Cc1c[nH]cn1)C(=O)N[C@@H](C)C(=O)N[C@@H](CS)C(=O)N[C@@H](Cc1ccccc1)C(=O)N[C@H](C(=O)N[C@@H](CS)C(=O)N[C@@H](C)C(=O)N[C@@]1(C)CCCC=CCCC[C@@](C)(C(=O)N[C@@H](CCCNC(=N)N)C(=O)O)NC(=O)[C@H](CCCCN)NC(=O)[C@H](CC(C)C)NC(=O)[C@H](CCCCN)NC1=O)[C@@H](C)O [S10, His-Leu-Met-Ala-Cys-Phe-Thr-Cys-Ala-S5-Lys-Leu-Lys-S5-Arg] (H-HLMACFTCA[S5]KLK[S5]R-OH; staple 10-14; N-terminus and C-terminus assumed) | 3 | 31.5% | significantly higher than that of polypeptide MR2 | interacted with the TRB3 protein
5 | CSCC[C@H](NC(=O)[C@H](CC(C)C)NC(=O)[C@@H](N)Cc1c[nH]cn1)C(=O)N[C@@H](C)C(=O)N[C@@H](CS)C(=O)N[C@@H](Cc1ccccc1)C(=O)N[C@H](C(=O)N[C@@H](CS)C(=O)N[C@@H](C)C(=O)N[C@@H](CCCCN)C(=O)N[C@@]1(C)CCCC=CCCC[C@@](C)(C(=O)O)NC(=O)[C@H](CCCCN)NC(=O)[C@H](CCCCN)NC(=O)[C@H](CC(C)C)NC1=O)[C@@H](C)O [S11, His-Leu-Met-Ala-Cys-Phe-Thr-Cys-Ala-Lys-S5-Leu-Lys-Lys-S5] (H-HLMACFTCAK[S5]LKK[S5]-OH; staple 11-15; N-terminus and C-terminus assumed) | 3 | 37.8% | significantly higher than that of polypeptide MR2 | interacted with the TRB3 protein

From patent US20210179680A1, “POLYPEPTIDE, DERIVATIVES THEREOF, AND APPLICATION THEREOF IN PREPARATION OF DRUGS HAVING RESISTANCE TO PULMONARY FIBROSIS” (priority 2016, published 2021)
